Reference: ChEMBL document CHEMBL1201862, “PubChem BioAssay data set” (2004)
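Grown in 96-well plates, cells were treated for 48 hours with each compound at five concentrations. Insufficient inhibition: endpoint recorded as highest concentration tested. Abbreviation: GI50, concentration required for 50% inhibition of growth.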 Active and inactive are the calls of the source. Cut-off read from the data, not from the text of the source: active = GI50 up to about 1.1 µM and inactive = higher.

How the values were obtained:
Assay in all cases: inhibition of tumour cell growth, NCI panel, 48 h
[1] = tested on: A498
[2] = tested on: A549
[3] = tested on: ACHN
[4] = tested on: BT-549
[5] = tested on: CCRF-CEM
[6] = tested on: COLO 205
[7] = tested on: DU-145
[8] = tested on: EKVX
[9] = tested on: HCC 2998
[10] = tested on: HCT-116
[11] = tested on: HCT-15
[12] = tested on: HL-60
[13] = tested on: HOP-62
[14] = tested on: HOP-92
[15] = tested on: HT-29
[16] = tested on: IGROV-1
[17] = tested on: K562
[18] = tested on: KM12
[19] = tested on: LOX IMVI
[20] = tested on: M14
[21] = tested on: MCF7
[22] = tested on: MDA-MB-231
[23] = tested on: MDA-MB-435
[24] = tested on: MDA-N
[25] = tested on: MOLT-4
[26] = tested on: Malme-3M
[27] = tested on: NCI-H226
[28] = tested on: NCI-H23
[29] = tested on: NCI-H460
[30] = tested on: NCI/ADR-RES
[31] = tested on: OVCAR-3
[32] = tested on: OVCAR-4
[33] = tested on: OVCAR-5
[34] = tested on: PC-3
[35] = tested on: RPMI-8226
[36] = tested on: RXF 393
[37] = tested on: SF-268
[38] = tested on: SF-539
[39] = tested on: SK-MEL-28
[40] = tested on: SK-MEL-2
[41] = tested on: SK-MEL-5
[42] = tested on: SK-OV-3
[43] = tested on: SN12C
[44] = tested on: SNB-19
[45] = tested on: SR
[46] = tested on: SW-620
[47] = tested on: TK-10
[48] = tested on: U-251
[49] = tested on: UACC-257
[50] = tested on: UACC-62
[51] = tested on: UO-31
[52] = tested on: 786-0
[53] = tested on: CAKI-1
[54] = tested on: Hs-578T
[55] = tested on: NCI-H522
[56] = tested on: OVCAR-8
[57] = tested on: SF-295
[58] = tested on: SNB-75
[59] = tested on: T47D

N#Cc1c(N)sc2c1-c1ccccc1OC2
GI50 [1]: 29.3 µM (inactive) | GI50 [2]: 32.4 µM (inactive) | GI50 [3]: 32.2 µM (inactive) | GI50 [4]: 41 µM (inactive) | GI50 [5]: 12.4 µM (inactive) | GI50 [6]: 42.8 µM (inactive) | GI50 [7]: 50.1 µM (inactive) | GI50 [8]: 3.52 µM (inactive) | GI50 [9]: 26 µM (inactive) | GI50 [10]: 27.3 µM (inactive) | GI50 [11]: 26700 nM | GI50 [12]: 16.4 µM (inactive) | GI50 [13]: 46.3 µM (inactive) | GI50 [14]: 44 µM (inactive) | GI50 [15]: 26.2 µM (inactive) | GI50 [16]: 49.7 µM (inactive) | GI50 [17]: 34.2 µM (inactive) | GI50 [18]: 38.2 µM (inactive) | GI50 [19]: 38.1 µM (inactive) | GI50 [20]: 56.5 µM (inactive) | GI50 [21]: 40 µM (inactive) | GI50 [22]: 46.9 µM (inactive) | GI50 [23]: 32.5 µM (inactive) | GI50 [24]: 21.1 µM (inactive) | GI50 [25]: 17.5 µM (inactive) | GI50 [26]: 41.2 µM (inactive) | GI50 [27]: 93.5 µM (inactive) | GI50 [28]: 45.4 µM (inactive) | GI50 [29]: 36.4 µM (inactive) | GI50 [30]: 32.2 µM (inactive) | GI50 [31]: 22.3 µM (inactive) | GI50 [32]: 26.5 µM (inactive) | GI50 [33]: 31.6 µM (inactive) | GI50 [34]: 32.4 µM (inactive) | GI50 [35]: 33.6 µM (inactive) | GI50 [36]: 16 µM (inactive) | GI50 [37]: 37.1 µM (inactive) | GI50 [38]: 46.6 µM (inactive) | GI50 [39]: 44.2 µM (inactive) | GI50 [40]: 38.5 µM (inactive) | GI50 [41]: 45.3 µM (inactive) | GI50 [42]: 38.2 µM (inactive) | GI50 [43]: 19.7 µM (inactive) | GI50 [44]: 30.5 µM (inactive) | GI50 [45]: 19.1 µM (inactive) | GI50 [46]: 35.5 µM (inactive) | GI50 [47]: 32.1 µM (inactive) | GI50 [48]: 45.1 µM (inactive) | GI50 [49]: > 100 µM (inactive) | GI50 [50]: 53.7 µM (inactive) | GI50 [51]: 25.2 µM (inactive)

C/C(=N/NC(=S)N1CCCC1)c1cccc(/C(C)=N\NC(=S)N2CCCC2)n1
GI50 [52]: 1.37 µM (inactive) | GI50 [1]: 1.29 µM (inactive) | GI50 [2]: 1.44 µM (inactive) | GI50 [3]: 0.791 µM (active) | GI50 [4]: 2.23 µM (inactive) | GI50 [53]: 1.28 µM (inactive) | GI50 [5]: 0.0667 µM (active) | GI50 [6]: 0.785 µM (active) | GI50 [7]: 2.61 µM (inactive) | GI50 [8]: 0.152 µM (active) | GI50 [9]: 1.21 µM (inactive) | GI50 [10]: 1.14 µM (inactive) | GI50 [11]: 492 nM | GI50 [12]: 0.453 µM (active) | GI50 [13]: 0.378 µM (active) | GI50 [15]: 0.0318 µM (active) | GI50 [54]: 3.49 µM (inactive) | GI50 [16]: 0.881 µM (active) | GI50 [17]: 0.0468 µM (active) | GI50 [18]: 1.22 µM (inactive) | GI50 [19]: 0.0847 µM (active) | GI50 [20]: 1.25 µM (inactive) | GI50 [22]: 0.046 µM (active) | GI50 [23]: 1.43 µM (inactive) | GI50 [24]: 1.38 µM (inactive) | GI50 [25]: 0.0412 µM (active) | GI50 [26]: 1.84 µM (inactive) | GI50 [27]: 1.62 µM (inactive) | GI50 [28]: 1.88 µM (inactive) | GI50 [29]: 1.06 µM (active) | GI50 [55]: 1.8 µM (inactive) | GI50 [30]: 1.96 µM (inactive) | GI50 [31]: 0.0973 µM (active) | GI50 [33]: 1.7 µM (inactive) | GI50 [56]: 1.11 µM (active) | GI50 [34]: 0.076 µM (active) | GI50 [35]: 2.06 µM (inactive) | GI50 [36]: 1.32 µM (inactive) | GI50 [37]: 1.68 µM (inactive) | GI50 [57]: 0.548 µM (active) | GI50 [38]: 1.36 µM (inactive) | GI50 [39]: 1.97 µM (inactive) | GI50 [40]: 1.7 µM (inactive) | GI50 [41]: 1.36 µM (inactive) | GI50 [42]: 1.46 µM (inactive) | GI50 [43]: 1.14 µM (inactive) | GI50 [44]: 2.57 µM (inactive) | GI50 [58]: 1.21 µM (inactive) | GI50 [45]: 0.0944 µM (active) | GI50 [46]: 0.267 µM (active) | GI50 [47]: 1.39 µM (inactive) | GI50 [48]: 1.5 µM (inactive) | GI50 [50]: 2.25 µM (inactive) | GI50 [51]: 0.766 µM (active)

CN1COCc2cc3cc4c(cc3nc21)OCCO4
GI50 [52]: > 100 µM (inactive) | GI50 [1]: > 100 µM (inactive) | GI50 [2]: > 100 µM (inactive) | GI50 [3]: > 100 µM (inactive) | GI50 [4]: 87.3 µM (inactive) | GI50 [53]: 94.6 µM (inactive) | GI50 [5]: 81.7 µM (inactive) | GI50 [6]: > 100 µM (inactive) | GI50 [8]: > 100 µM (inactive) | GI50 [9]: > 100 µM (inactive) | GI50 [10]: 93.3 µM (inactive) | GI50 [11]: > 100000 nM | GI50 [13]: > 100 µM (inactive) | GI50 [14]: 38.8 µM (inactive) | GI50 [15]: > 100 µM (inactive) | GI50 [54]: 0.0452 µM (active) | GI50 [16]: 55 µM (inactive) | GI50 [17]: > 100 µM (inactive) | GI50 [18]: 41.5 µM (inactive) | GI50 [19]: > 100 µM (inactive) | GI50 [20]: > 100 µM (inactive) | GI50 [21]: 21.2 µM (inactive) | GI50 [22]: > 100 µM (inactive) | GI50 [23]: > 100 µM (inactive) | GI50 [24]: > 100 µM (inactive) | GI50 [25]: 11.5 µM (inactive) | GI50 [26]: 30 µM (inactive) | GI50 [27]: > 100 µM (inactive) | GI50 [29]: 44.8 µM (inactive) | GI50 [55]: > 100 µM (inactive) | GI50 [30]: > 100 µM (inactive) | GI50 [32]: > 100 µM (inactive) | GI50 [33]: > 100 µM (inactive) | GI50 [56]: > 100 µM (inactive) | GI50 [34]: 91.8 µM (inactive) | GI50 [35]: 4.72 µM (inactive) | GI50 [36]: > 100 µM (inactive) | GI50 [37]: > 100 µM (inactive) | GI50 [57]: > 100 µM (inactive) | GI50 [38]: > 100 µM (inactive) | GI50 [40]: > 100 µM (inactive) | GI50 [41]: 39.5 µM (inactive) | GI50 [42]: > 100 µM (inactive) | GI50 [43]: > 100 µM (inactive) | GI50 [44]: > 100 µM (inactive) | GI50 [58]: > 100 µM (inactive) | GI50 [46]: > 100 µM (inactive) | GI50 [47]: > 100 µM (inactive) | GI50 [48]: > 100 µM (inactive) | GI50 [49]: > 100 µM (inactive) | GI50 [50]: > 100 µM (inactive)

CCN(CC)CCNc1n[n+]([O-])c2ccccc2[n+]1[O-]
GI50 [52]: 4.74 µM (inactive) | GI50 [3]: 3.79 µM (inactive) | GI50 [4]: 17.7 µM (inactive) | GI50 [5]: 3.57 µM (inactive) | GI50 [6]: 5.52 µM (inactive) | GI50 [7]: 13.9 µM (inactive) | GI50 [9]: 3.39 µM (inactive) | GI50 [10]: 8.22 µM (inactive) | GI50 [11]: 2000 nM | GI50 [12]: 2.28 µM (inactive) | GI50 [15]: 8.93 µM (inactive) | GI50 [16]: 2.43 µM (inactive) | GI50 [17]: 3.25 µM (inactive) | GI50 [18]: 9.98 µM (inactive) | GI50 [20]: 10.1 µM (inactive) | GI50 [23]: 22.3 µM (inactive) | GI50 [24]: 12.2 µM (inactive) | GI50 [25]: 1.73 µM (inactive) | GI50 [26]: 8.38 µM (inactive) | GI50 [27]: 9.93 µM (inactive) | GI50 [30]: 18.6 µM (inactive) | GI50 [31]: 9.02 µM (inactive) | GI50 [33]: 14.7 µM (inactive) | GI50 [56]: 8.65 µM (inactive) | GI50 [34]: 8.53 µM (inactive) | GI50 [35]: 3.06 µM (inactive) | GI50 [36]: 8.63 µM (inactive) | GI50 [37]: 18.9 µM (inactive) | GI50 [57]: 4.78 µM (inactive) | GI50 [38]: 17.7 µM (inactive) | GI50 [39]: 39.3 µM (inactive) | GI50 [41]: 1.57 µM (inactive) | GI50 [43]: 3.56 µM (inactive) | GI50 [44]: 12.5 µM (inactive) | GI50 [46]: 11.9 µM (inactive) | GI50 [59]: 5.32 µM (inactive) | GI50 [47]: 8.89 µM (inactive) | GI50 [48]: 12.6 µM (inactive) | GI50 [50]: 3.96 µM (inactive) | GI50 [51]: 17.9 µM (inactive)
